From patent US20260061042A1, “POLYNUCLEOTIDE COMPOSITIONS AND USES THEREOF” (Pfizer Inc., priority 2024, published 2026)
Where a chain is given by its changes, count along the chain named. pKd: −log10 of the molar value. Read-outs that look alike come from different tables or passages of the source.

Legend:
Test in all cases: PapG Luminex ligand binding at equilibrium
[1] = molecular target: T1, E. coli CFT073 PapG-II lectin domain PapGLD variant N96S G122A, SEQ ID NO: 20 (Escherichia coli, UniProt A0A0H2VAQ6, G142A/N116S); conditions: for pKd: HEPES pH 7.4, 4° C. overnight
T1 sequence (A0A0H2VAQ6 with tags, fused parts or gaps N116S/G142A): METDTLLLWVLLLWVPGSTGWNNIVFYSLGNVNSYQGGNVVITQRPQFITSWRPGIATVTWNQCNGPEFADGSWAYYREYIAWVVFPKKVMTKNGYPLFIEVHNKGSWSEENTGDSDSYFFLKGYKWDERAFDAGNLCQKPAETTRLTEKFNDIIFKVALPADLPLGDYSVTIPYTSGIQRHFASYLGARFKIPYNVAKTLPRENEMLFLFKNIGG
Method: (§1) To determine the ability of PapGLD mutants to bind the porcine derived globotetraosyl ceramide ligand GalNAc-Gal-Gal-Glc-ceramide (GbO4), a Luminex ligand binding assay was developed. Surfactant Protein-A (SP-A) was coupled to the surface of MagPlex beads by EDC/NHS, to capture the lipid tail of the globotetraosyl ceramide. The Globotetraosyl ceramide/SP-A beads were incubated with an eight-point threefold titration of PapG in a 96 well flat bottom white plate with final volume of 100 microliters of 50 mM HEPES PH 7.4, 10 mM NaCl, 0.0005% Tween 20 shaking at 300 rpm, 4° C. overnight. After 20-24 hours the ligand binding plates were read on a FlexMap 3D plate reader for measurement of well-bead region specific MFI. Ligand binding equilibrium dissociation constants (Kd) were calculated assuming one site specific binding and interpolated using non-linear curve fitting (GraphPad Prism) as the ligand concentration needed to achieve half-maximal binding. The Luminex derived apparent Kd values are based on approximately fifty bead counts per assay sample.
(§2) To determine Luminex ligand binding affinities of PapG mutants for the synthetic globoside ligand Gal-Glc-phenoxy-octyl-amine (GbO2Mpo), a Luminex ligand binding assay was developed based on the direct coupling of the amine reactive globoside ligand to the EDC/NHS activated carboxylic surface of MagPlex beads. Synthesis of GbO2Mpo ligand with an octyl amine linker (for coupling to beads) was performed via methods described previously. The GbO2Mpo beads were incubated with an 8-point, threefold titration of PapG in a 96-well flat bottom white plate with final volume of 100 μl of 50 mM HEPES pH 7.4, 10 mM NaCl, 0.0005% Tween 20 shaking at 300 rpm, 4° C. overnight. After 20-24 hours the ligand binding plates were read on a FlexMap 3D plate reader for measurement of well-bead region specific MFI.
(§3) Binding of PapG proteins to GbO2 or GbO4 ligands was evaluated using a Luminex platform wherein ligands were coupled to MagPlex beads via surfactant protein A (for […]) or directly using […] conjugation (for […]). This assay was used to rank order binding affinities of the mutants, reported as Kd values interpolated from protein antigen titration curves (Table 7).

[2] = molecular target: T2, E. coli CFT073 PapG-II lectin domain PapGLD variant N96S S89T, SEQ ID NO: 15 (Escherichia coli, UniProt A0A0H2VAQ6, N116S/S109T); conditions: HEPES pH 7.4, 4° C. overnight
T2 sequence (A0A0H2VAQ6 with tags, fused parts or gaps S109T/N116S): T1 sequence (A0A0H2VAQ6 with tags, fused parts or gaps N116S/G142A) with S109T, A142G
Method: as §1, §2, §3

[3] = molecular target: T3, E. coli CFT073 full-length donor strand complemented PapG-II, PapGDSF N96S N242S N286S (Escherichia coli, UniProt A0A0H2VAQ6, N116S/N262S/N306S); conditions: HEPES pH 7.4, 4° C. overnight
T3 construct: mouse IgGK signal peptide, C-terminal 8xHis, ExpiCHO, purified
T3 sequence (A0A0H2VAQ6 with tags, fused parts or gaps N116S/N262S/N306S): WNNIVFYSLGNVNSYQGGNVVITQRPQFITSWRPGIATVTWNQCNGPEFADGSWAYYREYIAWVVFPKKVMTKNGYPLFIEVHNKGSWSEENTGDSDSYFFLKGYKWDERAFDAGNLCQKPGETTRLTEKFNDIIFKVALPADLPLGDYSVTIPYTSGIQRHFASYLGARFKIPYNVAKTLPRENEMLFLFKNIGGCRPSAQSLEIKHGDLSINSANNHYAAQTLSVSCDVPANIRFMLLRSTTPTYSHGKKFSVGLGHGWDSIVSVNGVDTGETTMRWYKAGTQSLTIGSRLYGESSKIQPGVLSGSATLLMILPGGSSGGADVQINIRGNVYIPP
Method: as §1, §2, §3

[4] = molecular target: T4, E. coli CFT073 full-length donor strand complemented PapG-II, PapGDSF N96S N286S (Escherichia coli, UniProt A0A0H2VAQ6, N116S/N306S); conditions: HEPES pH 7.4, 4° C. overnight
T4 construct: mouse IgGK signal peptide, C-terminal 8xHis, ExpiCHO, purified
T4 sequence (A0A0H2VAQ6 with tags, fused parts or gaps N116S/N306S): T3 sequence (A0A0H2VAQ6 with tags, fused parts or gaps N116S/N262S/N306S) with S242N
Method: as §1, §2, §3

[5] = molecular target: T5, E. coli CFT073 full-length donor strand complemented PapG-II, PapGDSF variant N96S N242S N286S K172A, SEQ ID NO: 26 (Escherichia coli, UniProt A0A0H2VAQ6, K192A/N116S/N262S/N306S); conditions: for pKd: HEPES pH 7.4, 4° C. overnight
T5 construct: mouse IgGK signal peptide, C-terminal 8xHis, ExpiCHO, purified
T5 sequence (A0A0H2VAQ6 with tags, fused parts or gaps N116S/K192A/N262S/N306S): T3 sequence (A0A0H2VAQ6 with tags, fused parts or gaps N116S/N262S/N306S) with K172A
Method: as §1, §2, §3

[6] = GbO2Mpo beads, read-out: Kd (GbO2)
[7] = GbO4 beads, read-out: Kd (GbO4)

Row | Substance | pKd [1, 6] | pKd [2, 6] | pKd [3, 6] | pKd [4, 6] | binding to GbO2 (in words) [5] | pKd [5, 6] | binding to GbO4 (in words) [1] | pKd [1, 7] | pKd [2, 7] | pKd [3, 7] | pKd [4, 7] | binding to GbO4 (in words) [5] | pKd [5, 7]
1 | Gal-Glc-phenoxy-octyl-amine [GbO2] | 8.85 | 9.00 | 8.66 | 8.80 | no binding was detected | < 6.52 |  |  |  |  |  |  | 
2 | GalNAc-Gal-Gal-Glc-ceramide [GbO4] |  |  |  |  |  |  | reduced binding | < 6.52 | > 7.30 | 8.52 | 8.06 | no binding was detected | < 6.52
